pIC50, pKd: −log10 of the molar value. The source made the active and inactive calls. The calls are words filed in the database; no cut-off is given here.
What was measured:
[1] = target: Epidermal growth factor receptor (Homo sapiens, UniProt P00533); test: Inhibition of human N-terminal GST-tagged EGFR (696 to 1022 residues) expressed in Sf21 insect cells by HTRF assay
[2] = target: T1, STE20-like serine/threonine-protein kinase (Homo sapiens, UniProt Q9H2G2); test: Binding affinity to wild-type human partial length SLK (S14 to A307 residues) expressed in bacterial expression system assessed as residual binding level at 10 uM by Kinomescan method
[3] = target: Epidermal growth factor receptor (Homo sapiens, UniProt P00533, L858R/T790M); test: Inhibition of human N-terminal GST-tagged EGFR double T790M/L858R mutant (696 to 1022 residues) expressed in Sf21 insect cells by HTRF assay
[4] = target: Epidermal growth factor receptor (Homo sapiens, UniProt P00533, C797S/L858R/T790M); test: Inhibition of human N-terminal GST-tagged EGFR triple T790M/L858R/C797S mutant (696 to 1022 residues) expressed in Sf21 insect cells by HTRF assay
[5] = target: T1, STE20-like serine/threonine-protein kinase; test: Inhibition of tracer 236 binding to recombinant full length human GST-tagged SLK expressed in baculovirus expression system measured after 60 mins by Lanthascreen assay relative to control
[6] = tested on: Epidermal growth factor receptor (Homo sapiens), P00533 [L858R,T790M]; test: Allosteric inhibition of human N-terminal GST-tagged EGFR double T790M/L858R mutant (696 to 1022 residues) expressed in Sf21 insect cells assessed as change in inhibition rate in presence of 1 to 1000 uM ATP by HTRF assay
[7] = target: Epidermal growth factor receptor (Homo sapiens, UniProt P00533, L858R); test: Inhibition of human N-terminal GST-tagged EGFR L858R mutant (696 to 1022 residues) expressed in Sf21 insect cells by HTRF assay
[8] = target: Mast/stem cell growth factor receptor Kit (Homo sapiens, UniProt P10721, V559D/V654A); test: Inhibition of recombinant human His-tagged KIT V559D/V654A double mutant expressed in baculovirus expression system at 10 uM by kinomescan assay

Sequence of Epidermal growth factor receptor (Homo sapiens, UniProt P00533, L858R) (P00533 25-1210 L858R limits assumed): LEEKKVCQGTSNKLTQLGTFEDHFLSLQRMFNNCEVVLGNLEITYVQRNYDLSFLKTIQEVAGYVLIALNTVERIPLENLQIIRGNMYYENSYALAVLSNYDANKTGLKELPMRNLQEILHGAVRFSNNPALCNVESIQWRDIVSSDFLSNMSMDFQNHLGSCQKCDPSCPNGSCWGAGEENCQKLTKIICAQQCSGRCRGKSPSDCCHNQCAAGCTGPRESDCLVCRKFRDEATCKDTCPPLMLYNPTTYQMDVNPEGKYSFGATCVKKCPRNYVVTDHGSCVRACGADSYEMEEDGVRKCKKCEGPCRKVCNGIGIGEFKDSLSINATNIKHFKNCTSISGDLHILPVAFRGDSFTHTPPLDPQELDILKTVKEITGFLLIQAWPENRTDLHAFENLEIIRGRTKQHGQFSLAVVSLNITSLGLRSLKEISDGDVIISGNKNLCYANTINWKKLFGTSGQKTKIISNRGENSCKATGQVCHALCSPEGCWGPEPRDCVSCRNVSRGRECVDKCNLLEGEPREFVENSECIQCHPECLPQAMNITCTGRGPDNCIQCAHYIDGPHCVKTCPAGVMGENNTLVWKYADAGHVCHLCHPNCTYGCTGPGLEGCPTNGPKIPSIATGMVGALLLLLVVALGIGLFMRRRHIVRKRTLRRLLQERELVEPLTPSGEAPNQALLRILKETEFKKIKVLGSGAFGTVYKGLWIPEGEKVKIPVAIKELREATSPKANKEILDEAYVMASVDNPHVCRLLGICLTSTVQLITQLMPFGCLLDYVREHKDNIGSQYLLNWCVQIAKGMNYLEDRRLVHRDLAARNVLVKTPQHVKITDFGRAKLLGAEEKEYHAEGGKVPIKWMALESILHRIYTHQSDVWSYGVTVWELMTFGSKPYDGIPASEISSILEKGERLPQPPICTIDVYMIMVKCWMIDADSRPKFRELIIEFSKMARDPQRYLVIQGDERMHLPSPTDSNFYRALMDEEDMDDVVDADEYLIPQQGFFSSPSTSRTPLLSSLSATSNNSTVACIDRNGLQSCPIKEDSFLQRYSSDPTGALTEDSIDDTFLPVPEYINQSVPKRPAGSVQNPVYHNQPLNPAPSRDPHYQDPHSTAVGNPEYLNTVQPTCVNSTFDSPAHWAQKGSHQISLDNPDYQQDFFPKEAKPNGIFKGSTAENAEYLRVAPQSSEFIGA
Sequence of Epidermal growth factor receptor (Homo sapiens, UniProt P00533, L858R/T790M) (P00533 25-1210 T790M/L858R limits assumed): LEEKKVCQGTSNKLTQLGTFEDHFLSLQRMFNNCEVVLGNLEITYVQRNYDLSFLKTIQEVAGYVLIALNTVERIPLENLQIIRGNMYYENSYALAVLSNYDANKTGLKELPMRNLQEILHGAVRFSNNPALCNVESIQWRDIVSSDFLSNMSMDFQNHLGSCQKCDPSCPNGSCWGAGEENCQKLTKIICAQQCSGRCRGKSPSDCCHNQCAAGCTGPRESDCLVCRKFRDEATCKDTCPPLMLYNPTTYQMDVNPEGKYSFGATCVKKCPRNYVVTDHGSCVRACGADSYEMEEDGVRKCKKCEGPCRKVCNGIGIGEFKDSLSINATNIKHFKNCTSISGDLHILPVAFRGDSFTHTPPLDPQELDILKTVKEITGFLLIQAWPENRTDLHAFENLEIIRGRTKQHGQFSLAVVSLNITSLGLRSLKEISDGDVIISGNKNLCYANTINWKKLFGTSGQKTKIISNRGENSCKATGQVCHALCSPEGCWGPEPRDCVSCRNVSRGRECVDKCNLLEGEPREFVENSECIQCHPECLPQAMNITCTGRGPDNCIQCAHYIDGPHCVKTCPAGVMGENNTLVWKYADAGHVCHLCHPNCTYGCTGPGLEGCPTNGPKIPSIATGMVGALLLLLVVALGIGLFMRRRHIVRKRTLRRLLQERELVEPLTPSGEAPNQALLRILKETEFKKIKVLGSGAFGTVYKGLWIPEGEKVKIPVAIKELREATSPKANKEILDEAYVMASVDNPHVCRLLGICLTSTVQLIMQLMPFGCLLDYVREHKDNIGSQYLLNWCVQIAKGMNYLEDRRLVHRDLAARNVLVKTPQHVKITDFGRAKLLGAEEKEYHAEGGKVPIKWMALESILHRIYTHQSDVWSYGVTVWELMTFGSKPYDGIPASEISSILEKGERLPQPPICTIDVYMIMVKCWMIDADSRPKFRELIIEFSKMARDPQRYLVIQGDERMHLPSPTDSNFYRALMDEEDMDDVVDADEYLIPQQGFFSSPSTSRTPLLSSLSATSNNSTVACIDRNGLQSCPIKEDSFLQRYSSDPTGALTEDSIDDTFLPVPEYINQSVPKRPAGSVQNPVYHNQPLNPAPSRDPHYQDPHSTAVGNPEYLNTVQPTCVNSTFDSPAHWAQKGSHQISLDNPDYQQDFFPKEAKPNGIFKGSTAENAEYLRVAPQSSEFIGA
Sequence of Epidermal growth factor receptor (Homo sapiens, UniProt P00533, C797S/L858R/T790M) (P00533 25-1210 T790M/C797S/L858R limits assumed): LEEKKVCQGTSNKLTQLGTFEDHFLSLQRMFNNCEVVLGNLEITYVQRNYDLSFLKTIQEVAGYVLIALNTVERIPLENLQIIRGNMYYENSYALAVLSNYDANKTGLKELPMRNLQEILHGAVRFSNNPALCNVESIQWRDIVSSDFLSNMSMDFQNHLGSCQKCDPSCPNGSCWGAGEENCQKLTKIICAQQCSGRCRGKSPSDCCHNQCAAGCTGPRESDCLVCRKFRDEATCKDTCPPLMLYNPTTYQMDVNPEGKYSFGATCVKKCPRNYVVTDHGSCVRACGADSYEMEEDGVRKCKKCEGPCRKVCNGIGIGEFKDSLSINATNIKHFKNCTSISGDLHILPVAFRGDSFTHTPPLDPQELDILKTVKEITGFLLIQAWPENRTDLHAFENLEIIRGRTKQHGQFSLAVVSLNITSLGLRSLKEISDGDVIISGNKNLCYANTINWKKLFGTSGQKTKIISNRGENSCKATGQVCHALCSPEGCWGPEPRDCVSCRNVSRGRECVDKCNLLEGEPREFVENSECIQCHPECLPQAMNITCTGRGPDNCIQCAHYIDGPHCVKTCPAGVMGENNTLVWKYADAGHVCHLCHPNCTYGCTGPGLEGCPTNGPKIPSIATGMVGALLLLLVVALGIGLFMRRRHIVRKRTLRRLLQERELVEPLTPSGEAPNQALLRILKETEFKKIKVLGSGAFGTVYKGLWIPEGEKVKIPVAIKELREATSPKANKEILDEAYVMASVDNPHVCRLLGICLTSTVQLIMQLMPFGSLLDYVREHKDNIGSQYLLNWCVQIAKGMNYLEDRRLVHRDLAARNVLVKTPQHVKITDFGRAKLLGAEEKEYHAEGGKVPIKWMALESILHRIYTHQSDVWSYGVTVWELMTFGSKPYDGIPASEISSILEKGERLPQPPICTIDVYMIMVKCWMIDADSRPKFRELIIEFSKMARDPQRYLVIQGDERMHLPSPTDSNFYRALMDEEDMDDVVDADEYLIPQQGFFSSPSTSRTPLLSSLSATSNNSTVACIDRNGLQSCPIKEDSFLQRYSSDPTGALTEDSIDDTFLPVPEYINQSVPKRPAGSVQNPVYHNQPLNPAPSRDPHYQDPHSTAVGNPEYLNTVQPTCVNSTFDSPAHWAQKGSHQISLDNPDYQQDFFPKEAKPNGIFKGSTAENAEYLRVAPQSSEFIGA
Sequence of Epidermal growth factor receptor (Homo sapiens, UniProt P00533) (P00533 whole entry, the tested form may be a part): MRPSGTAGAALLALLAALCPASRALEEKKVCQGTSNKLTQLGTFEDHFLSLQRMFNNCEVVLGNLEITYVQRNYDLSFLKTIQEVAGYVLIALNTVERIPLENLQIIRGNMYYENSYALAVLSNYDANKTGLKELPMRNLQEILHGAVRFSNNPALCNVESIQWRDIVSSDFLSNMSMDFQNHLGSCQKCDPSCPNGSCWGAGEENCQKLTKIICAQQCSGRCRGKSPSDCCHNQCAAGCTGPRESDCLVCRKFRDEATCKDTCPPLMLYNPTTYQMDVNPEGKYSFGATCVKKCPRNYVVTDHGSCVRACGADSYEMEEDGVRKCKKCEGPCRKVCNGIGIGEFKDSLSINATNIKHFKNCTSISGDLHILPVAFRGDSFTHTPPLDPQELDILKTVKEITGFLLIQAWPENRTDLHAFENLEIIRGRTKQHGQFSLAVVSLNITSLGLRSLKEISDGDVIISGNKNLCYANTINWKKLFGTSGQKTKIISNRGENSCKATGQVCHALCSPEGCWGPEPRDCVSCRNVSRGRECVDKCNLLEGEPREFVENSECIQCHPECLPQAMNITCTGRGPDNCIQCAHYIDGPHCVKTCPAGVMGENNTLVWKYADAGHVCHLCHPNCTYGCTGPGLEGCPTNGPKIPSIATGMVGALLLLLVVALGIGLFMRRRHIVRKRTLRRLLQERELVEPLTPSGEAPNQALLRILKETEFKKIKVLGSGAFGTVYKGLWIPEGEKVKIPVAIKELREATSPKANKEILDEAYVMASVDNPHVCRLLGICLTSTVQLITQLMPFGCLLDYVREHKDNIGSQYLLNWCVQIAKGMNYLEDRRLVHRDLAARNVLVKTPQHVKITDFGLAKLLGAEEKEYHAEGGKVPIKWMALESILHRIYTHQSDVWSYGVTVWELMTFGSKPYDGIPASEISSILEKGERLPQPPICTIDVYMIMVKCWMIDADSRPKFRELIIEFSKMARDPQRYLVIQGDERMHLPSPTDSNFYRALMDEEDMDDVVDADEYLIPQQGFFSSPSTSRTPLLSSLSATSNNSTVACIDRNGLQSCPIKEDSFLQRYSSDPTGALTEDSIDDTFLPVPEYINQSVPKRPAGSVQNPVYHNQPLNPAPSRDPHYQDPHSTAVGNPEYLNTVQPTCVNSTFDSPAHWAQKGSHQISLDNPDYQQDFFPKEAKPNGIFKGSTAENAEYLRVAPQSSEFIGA

SMILES | pIC50 [1] | pKd [2] | pIC50 [3] | pIC50 [4] | pIC50 [5] | inhibition [6] | pIC50 [7] | pKd [8]
CN1CCN(c2ccc(Oc3ccc4c(c3)C(=O)N(Cc3ccccc3)c3cc(F)ccc3N4)cc2)CC1 | < 6.00 | < 5.00 | 7.96 | 7.89 | < 5.00 | inactive | 6.81 | < 5.00
O=C1c2cc(-c3ccc(N4CCNCC4)cc3)ccc2Nc2ccc(F)cc2N1Cc1ccccc1 | < 6.00 |  | 7.51 | 7.72 |  |  | 6.82 | 
